# Assays:
# [1] = SOD-mimic functions of thiotaurine (xanthine-xanthine oxidase-NBT method); format: biochemical
# Source text: Experimental method: Measurement of the SOD-mimic functions was done, with slight modifications, according to the Xanthine-xanthine oxidase-nitrobluetetrazolium (NBT) method described in Lipid Peroxide Experiments (edited by N. Kaneda, N. Ueda, Ishiyaku Press, p. 144). The measurement is based on measuring at 560 nm the amount of formazan produced by the reduction of NBT with a superoxide which results from the oxidation of xanthine with xanthine oxidase, and calculating the activation thereof. The modification involved irradiation with UVB ([…], 1.8 J/cm^2, 313 nm) for 5 minutes while simultaneously adding the xanthine oxidase, in order to interrupt the reaction.
# SOD = SOD (Bos taurus, UniProt P00442); experiment: SOD activating function; format: biochemical; details: read-out: SOD activating function (SOD activation rate)
# Experimental: Next, a measurement was made of the SOD activating function.
# Method of measurement of SOD activating function
# Test Comp. 0.1 0.1 -- --
# Preincubate 25° C., 10 min.
# UVB radiation, 6.0 mw/cm^2, 5 min. (1.8 J/cm^2)
# (1) System for observing whether the consumption of superoxides by SOD is
# further increased with the test composition.
# (3) System for inhibiting XOD reaction with SOD. XOD reaction was 20%
# (4) System for a complete, uninhibited XOD reaction.
# The SOD activation rates of the test compositions were calculated using the equation listed as Equation 1 below, and the results shown in Table 3 were obtained. [formula]
# [2] = Reactivity with singlet oxygen, riboflavin (Rf)/h.nu.-system; format: biochemical; details: for thiotaurine reacted with ^1 O2 (decomposition): absence of NaN3, pH 7.8
# Experimental: Fourteen milligrams of thiotaurine and 1.5 mg of riboflavin (Rf) were dissolved in 50 ml of a wing buffer solution (pH 7.8), after which light irradiation (FL20SBRF Toshiba, UVA 0.1 mW/cm^2, UVB 0.1 mW/cm^2, visible light 0.4 mW/cm^2) was initiated in the presence and in the absence of 34 mg of sodium azide (NaN3). After continuously reacting the product from the reactant solution with dansyl chloride, a fluorescent reagent, high-performance liquid chromatography was used for separation and analysis.
# The conditions for the high-performance liquid chromatography were as listed below.
# Mobile phase: 0.1M phosphate buffer solution: THF ([…]): acetonitrile=670:40:350
# The results obtained are shown in FIG. 1 as percentages (%) for the proportions of thiotaurine, hypotaurine and taurine at each hour shown.
# It is assumed that in the Rf/h.nu.-system ^1 O2 is produced according to the formula listed below as Chemical formula 7.
# [3] = Reactivity with ^1 O2 in riboflavin, rose bengal and methylene blue/h.nu.-systems with DABCO; format: biochemical; details: DABCO as quencher
# Source text: Therefore, the 3 systems listed below were used in identical experiments.
# 1. Riboflavin/h.nu.-system, 1,4-diazabicyclooctane (DABCO) as ^1 O2 quencher
# 2. Rose bengal/h.nu.-system DABCO as ^1 O2 quencher
# 3. Methylene blue/h.nu.-system DABCO as ^1 O2 eliminator
# [4] = Lipid peroxide production inhibitory effect; format: biochemical
# Experimental: Fifty ml of a solution prepared by combining a solution of 12.5 mg of methyl linoleate, 2.5 mg of Rf and 2-70 mg of thiotaurine in ethanol with a wing buffer solution, and the resulting solution was subjected to light irradiation as in Experiment 2. After a determined period of time a sample was recovered, and the lipid peroxides were measured using the Yagi method.
# [5] = Preventing effect on photo-oxidation of methionine by hydroxyl radical; format: biochemical; details: 1 mM thiotaurine, 1 mM methionine, riboflavin, NADH, Fe (II) EDTA, UVA 370 nm
# Experimental: In a quartz cell was placed 1 mM of methionine, riboflavin, NADH and Fe (II) EDTA, and super high pressure mercury lamp rays (UVA 370 nm) were irradiated thereto, thus presenting a control. Next, 1 mM of thiotaurine was added to the same system mentioned above and the reaction was initiated by light irradiation as before, while the two reactions were sequentially followed by HPLC and finally compared.
# These systems, to which the Fe (II) chelate compound and electron donor, NADH, were added in the presence of riboflavin, produced the HO.
# [6] = H2 O2 scavenging function; format: biochemical
# Experimental: In a quartz cell were placed 1 mM of thiotaurine and […] of H2 O2, and the change in thiotaurine was measured by HPLC while irradiating with light.
# [7] = Effect on alloxan diabetes; format: in vivo, Wistar Imamichi rats; details: 500 mg/kg oral once a day, 2 weeks
# Experimental: Thiotaurine was orally administered in an amount of 500 mg/kg once a day to Wistar Imamichi rats, for a period of 2 weeks. Three days prior to the last administration of the medicine feeding of the rats was stopped for 16 hours, and alloxan dissolved in chilled physiological saline was intravenously injected at an amount of 75 mg/kg. One hour after the last administration of the medicine, the rats were killed, their blood was obtained, and a measurement was made of the triglycerides and blood sugar in the blood, using the enzyme method.
# bacteria = format: cell-based; details: coexistence or non-coexistence with S9Mix
# [8] = Primary skin irritation test; format: in vivo; details: rabbits
# Experimental: In addition, the result was determined to be negative in both a primary skin irritation test and an eye irritation test using rabbits.
# [9] = alloxan 75 mg/kg i.v., P < 0.05 vs control group
# SOD, sequence (P00442 whole entry): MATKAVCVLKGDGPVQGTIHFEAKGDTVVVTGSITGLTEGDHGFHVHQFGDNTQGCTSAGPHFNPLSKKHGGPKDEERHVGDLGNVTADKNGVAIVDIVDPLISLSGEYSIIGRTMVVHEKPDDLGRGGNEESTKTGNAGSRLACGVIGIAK
smiles,measurement,setting,value
"NCCS(=O)(O)=S [thiotaurine, Aminoethyl thiosulfonate]",Superoxide production inhibition rate,[1]; 10^-2 M/reaction solution,34.4%
same,Superoxide production inhibition rate,[1]; 10^-3 M/reaction solution,34.7%
same,Superoxide production inhibition rate,[1]; 10^-4 M/reaction solution,43.2%
same,Superoxide production inhibition rate,[1]; 10^-5 M/reaction solution,35.7%
same,Superoxide production inhibition rate,[1]; 10^-6 M/reaction solution,47.0%
same,Superoxide production inhibition rate,[1]; 10^-7 M/reaction solution,34.7%
same,activation at 10000 µM,SOD; 10^-2 M/reaction solution,65.8%
same,activation at 1000 µM,SOD; 10^-3 M/reaction solution,32.1%
same,activation at 100 µM,SOD; 10^-4 M/reaction solution,29.6%
same,activation at 10 µM,SOD; 10^-5 M/reaction solution,14.3%
same,activation at 1 µM,SOD; 10^-6 M/reaction solution,1.6%
same,thiotaurine reacted with ^1 O2 (decomposition),[2]; 2 hours,40%
same,thiotaurine reacted with ^1 O2 (decomposition),[2]; 6 hours,90%
same,thiotaurine remaining,"[2]; 6 hours, presence of NaN3 (^1 O2 quencher), pH 7.8",approximately 85%
same,reaction with ^1 O2,[3],reacts with ^1 O2 in all three systems
same,prevention of production of lipid peroxides,"[4]; 2.8×1/10^4 M, after 7.5 hours, 280 µM",approximately 50%
same,prevention of production of lipid peroxides,"[4]; 4×1/10^3 M, 4000 µM",~100%
same,inhibition of methionine oxidation with HO.,[5],"inhibits the methionine oxidation with HO., and has a scavenging effect against hydroxy radicals"
same,"oxidation of thiotaurine to taurine and hypotaurine with H2 O2, time","[6]; light irradiation, 1 mM thiotaurine",about 3 hours
same,reaction with H2 O2,[6]; no light irradiation,did not react at all
same,"increase of glucose suppressed to, compared with control",[7],65%
same,"increase of triglycerides suppressed to, compared with control",[7],70%
same,Blood sugar,[7]; [9],769.1 ± 120.3 mg/dL
same,Triglyceride,[7]; [9],363.8 ± 38.2 mg/dL
same,Blood sugar relative to control group (100),[7]; control = 100,65
same,Triglyceride relative to control group (100),[7]; control = 100,70
same,mutagenicity (Ames Test),bacteria,no mutagenecity was observed
same,primary skin irritation,[8],negative

# — patent publication US5601806A, “Methods for scavenging active oxygen compounds and preventing damage from ultra violet B rays using taurine analogues” (Sogo Pharmaceutical Company Limited, priority 1991, dated 1997)
